Measured values published in patent US9511134B2, “Inducing immune responses to influenza virus using polypeptide and nucleic acid compositions” (priority 2006, dated 2016).
Values joined by “and” are separate entries in the source; they are usually repeats but may differ in a detail not shown here. Identical values can stand only once. Like-named read-outs stand apart in the source and are kept apart here. Where no end group is shown, it is not given here.

What was measured:
CD4+ PBMC = type: cell-based, human; conditions: IFNγ ELISPOT, CD8-depleted; for Human influenza epitope-specific immune response, donor 3501: PBMC rested five days
DRB1*0101 = molecular target: T1, DRB1*0101 (Homo sapiens, UniProt P01903+P01911, A100R/D57E/F55L/F60I/F76Y/I96L/L162R/M171V/P40L/Q125E/R42F/V115G/Y59C); assay: biochemical; type: binding
T1 construct: made in house; host or cells: EBV-transformed homozygous human B cell lines, transfected fibroblasts or single-allele 721.221 transfectants

DRB1*0401 = molecular target: T2, DRB1*0401 (Homo sapiens, UniProt P01903+P01911, A100K/A169T/F76Y/I96L/K127E/L162R/M171V/N62H/P40V/Q125Y/R42H/S133A/S149N/S66Y/V115G/V209L/W38E); assay: biochemical; type: binding; conditions: read-out: IC50 nM to purified HLA DRB1*0401
T2 construct: made in house; host or cells: EBV-transformed homozygous human B cell lines, transfected fibroblasts or single-allele 721.221 transfectants

DRB1*0404 = DRB1*0404 (Homo sapiens, UniProt P01903+P01911, A100R/A169T/F76Y/I96L/K127E/L162R/M171V/N62H/P40V/Q125Y/R42H/S133A/S149N/S66Y/V209L/W38E); assay: biochemical; type: binding; conditions: IC50 nM to purified HLA DRB1*0404
DRB1*0405 = DRB1*0405 (Homo sapiens, UniProt P01903+P01911, A100R/A169T/D86S/F76Y/I96L/K127E/L162R/M171V/N62H/P40V/Q125Y/R42H/S133A/S149N/S66Y/V115G/V209L/W38E); assay: biochemical; type: binding; conditions: read-out: IC50 nM to purified HLA DRB1*0405
DRB1*0301 = molecular target: T3, DRB1*0301 (Homo sapiens, UniProt P01903+P01911, A100K/A102G/A103R/A169T/F55Y/I96L/K41T/L162R/M171V/P40S/Q125H/Q178H/Q39Y/R42S/S66N/T106N/T262R/W38E/Y61H); assay: biochemical; type: binding
T3 construct: made in house; host or cells: EBV-transformed homozygous human B cell lines, transfected fibroblasts or single-allele 721.221 transfectants

DRB1*1302 = DRB1*1302 (Homo sapiens, UniProt P01903+P01911, A100E/A169T/K41T/L162R/M171V/P40S/Q125H/Q178H/Q39Y/Q99D/R42S/S66N/T262R/V115G/W38E/Y61H); assay: biochemical; type: binding; conditions: read-out: IC50 nM to purified HLA DRB1*1302
[1] = five day expansion with peptide pool
[2] = IC50 nM to purified HLA DRB1*0101

T3 sequence (P01903 26-254, other chains not shown): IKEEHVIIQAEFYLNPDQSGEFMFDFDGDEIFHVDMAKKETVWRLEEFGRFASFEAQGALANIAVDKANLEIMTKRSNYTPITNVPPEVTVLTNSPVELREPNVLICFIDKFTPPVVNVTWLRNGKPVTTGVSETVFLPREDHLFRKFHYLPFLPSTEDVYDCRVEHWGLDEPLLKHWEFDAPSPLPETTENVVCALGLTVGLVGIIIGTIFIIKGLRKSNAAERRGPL
Chain of DRB1*1302 (P01903 26-254 limits assumed, other chains not shown): as the sequence (P01903 26-254, other chains not shown) above

Compound	Human influenza epitope-specific immune response, donor 3501 (CD4+ PBMC)	IC50 (DRB1*0101; [2]) [nM]	IC50 (DRB1*0401)	IC50 (DRB1*0405) [nM]	also measured
CC[C@H](C)[C@H](NC(=O)[C@H](CC(C)C)NC(=O)[C@H](C)NC(=O)[C@H](CO)NC(=O)[C@H](CCCNC(=N)N)NC(=O)[C@H](C)NC(=O)[C@H](CC(C)C)NC(=O)[C@H](Cc1ccccc1)NC(=O)[C@@H](NC(=O)[C@H](CC(C)C)NC(=O)[C@@H](N)CC(=O)O)[C@@H](C)CC)C(=O)N[C@@H](CC(C)C)C(=O)N[C@@H](CCCNC(=N)N)C(=O)NCC(=O)N[C@@H](CO)C(=O)O [Flu.NP.258]	–	–	–	–	Human influenza epitope-specific immune response, donor 6018 (CD4+ PBMC; [1]): Positive (Donors were considered positive for a peptide if the number of spots was over 3 times background as determined by responses to irrelevant peptides (non influenza))
CC[C@H](C)[C@H](NC(=O)[C@H](CCC(N)=O)NC(=O)CNC(=O)[C@H](C)N)C(=O)N[C@@H](CO)C(=O)N[C@H](C(=O)N[C@@H](CCC(N)=O)C(=O)N1CCC[C@H]1C(=O)N[C@H](C(=O)N[C@@H](Cc1ccccc1)C(=O)N[C@@H](CO)C(=O)N[C@H](C(=O)N[C@@H](CCC(N)=O)C(=O)N[C@@H](CCCNC(=N)N)C(=O)N[C@@H](CC(N)=O)C(=O)O)C(C)C)[C@@H](C)O)C(C)C [Flu.NP.406]	Positive (Donors were considered positive for a peptide if the number of spots was over 3 times background as determined by responses to irrelevant peptides (non influenza))	–	–	–	–
CC[C@H](C)[C@H](NC(=O)[C@H](C)NC(=O)CNC(=O)[C@@H](N)CCC(=O)O)C(=O)N[C@H](C(=O)NCC(=O)N[C@@H](CCC(=O)O)C(=O)N[C@H](C(=O)N[C@@H](CO)C(=O)N1CCC[C@H]1C(=O)N[C@@H](CC(C)C)C(=O)N1CCC[C@H]1C(=O)N[C@@H](CO)C(=O)N[C@@H](CC(C)C)C(=O)N1CCC[C@H]1C(=O)O)[C@@H](C)CC)C(C)C [Flu.NS1.156]	Positive (Donors were considered positive for a peptide if the number of spots was over 3 times background as determined by responses to irrelevant peptides (non influenza))	85	48 nM and 27 nM	–	IC50 (DRB1*0101; IC50 nM to purified HLA DRB1*0101, Table 4): 85 nM; IC50 (DRB1*0401; Table 4): 48 nM; IC50 (DRB1*0404): 13 nM
CSCC[C@H](NC(=O)[C@H](CO)NC(=O)[C@@H](NC(=O)[C@H](Cc1ccccc1)NC(=O)[C@H](CC(N)=O)NC(=O)[C@@H](N)C(C)C)C(C)C)C(=O)N[C@@H](CCC(=O)O)C(=O)N[C@@H](Cc1ccccc1)C(=O)N[C@@H](CO)C(=O)N[C@@H](CC(C)C)C(=O)N[C@H](C(=O)N[C@@H](CC(=O)O)C(=O)N1CCC[C@H]1C(=O)N[C@@H](CCCNC(=N)N)C(=O)N[C@@H](CC(C)C)C(=O)O)[C@@H](C)O [Flu.PA.521]	–	–	–	7700	–
CC[C@H](C)[C@H](NC(=O)[C@H](CC(C)C)NC(=O)[C@H](CS)NC(=O)[C@H](CCC(=O)O)NC(=O)[C@@H](N)CCC(=O)O)C(=O)N[C@@H](CC(N)=O)C(=O)N[C@@H](CC(=O)O)C(=O)N1CCC[C@H]1C(=O)N[C@@H](Cc1c[nH]c2ccccc12)C(=O)N[C@H](C(=O)N[C@@H](CC(C)C)C(=O)N[C@@H](CC(C)C)C(=O)N[C@@H](CC(N)=O)C(=O)N[C@@H](C)C(=O)N[C@@H](CO)C(=O)O)C(C)C [Flu.PA.694]	–	34	–	15000	IC50 (DRB1*0301): 618 nM; IC50 (DRB1*0404): 183 nM
CSCC[C@H](NC(=O)CNC(=O)[C@H](CCSC)NC(=O)[C@@H](N)CCSC)C(=O)N[C@@H](Cc1ccccc1)C(=O)N[C@@H](CC(N)=O)C(=O)N[C@@H](CCSC)C(=O)N[C@@H](CC(C)C)C(=O)N[C@@H](CO)C(=O)N[C@H](C(=O)N[C@H](C(=O)N[C@@H](CC(C)C)C(=O)NCC(=O)N[C@H](C(=O)N[C@@H](CO)C(=O)O)C(C)C)C(C)C)[C@@H](C)O [Flu.PB1.411]	Positive (Donors were considered positive for a peptide if the number of spots was over 3 times background as determined by responses to irrelevant peptides (non influenza))	–	–	–	Human influenza epitope-specific immune response, donor 716 (CD4+ PBMC; [1]): Positive (Donors were considered positive for a peptide if the number of spots was over 3 times background as determined by responses to irrelevant peptides (non influenza)); Human influenza epitope-specific immune response, donor 753 (CD4+ PBMC; [1]): Positive (Donors were considered positive for a peptide if the number of spots was over 3 times background as determined by responses to irrelevant peptides (non influenza)); Human influenza epitope-specific immune response, donor 6018 (CD4+ PBMC; [1]): Positive (Donors were considered positive for a peptide if the number of spots was over 3 times background as determined by responses to irrelevant peptides (non influenza))
CC[C@H](C)[C@H](NC(=O)CNC(=O)[C@H](CCC(=O)O)NC(=O)[C@H](Cc1c[nH]cn1)NC(=O)[C@H](CC(N)=O)NC(=O)[C@@H]1CCCN1C(=O)[C@H](C)NC(=O)[C@H](CC(N)=O)NC(=O)[C@@H](NC(=O)[C@@H](NC(=O)[C@H](CC(C)C)NC(=O)[C@H](C)NC(=O)[C@H](Cc1ccccc1)NC(=O)[C@@H](N)CC(=O)O)[C@@H](C)CC)C(C)C)C(=O)N[C@@H](CCC(N)=O)C(=O)O [Flu.PB1.449]	Positive (Donors were considered positive for a peptide if the number of spots was over 3 times background as determined by responses to irrelevant peptides (non influenza))	–	–	–	–
CSCC[C@H](NC(=O)[C@H](CO)NC(=O)[C@H](Cc1ccccc1)NC(=O)[C@H](CC(N)=O)NC(=O)[C@H](C)NC(=O)[C@@H](NC(=O)[C@H](Cc1ccccc1)NC(=O)CNC(=O)[C@@H](N)Cc1ccc(O)cc1)C(C)C)C(=O)N[C@@H](CCC(=O)O)C(=O)N[C@@H](CC(C)C)C(=O)N1CCC[C@H]1C(=O)N[C@@H](CO)C(=O)N[C@@H](Cc1ccccc1)C(=O)NCC(=O)O [Flu.PB1.502]	Positive (Donors were considered positive for a peptide if the number of spots was over 3 times background as determined by responses to irrelevant peptides (non influenza))	–	–	–	–
CC[C@H](C)[C@H](NC(=O)CNC(=O)[C@@H](N)CCCNC(=N)N)C(=O)N[C@@H](CC(C)C)C(=O)N[C@@H](CCC(=O)O)C(=O)N[C@@H](CC(=O)O)C(=O)N[C@@H](CCC(=O)O)C(=O)N[C@@H](CCC(N)=O)C(=O)N[C@@H](CCSC)C(=O)N[C@@H](Cc1ccc(O)cc1)C(=O)N[C@@H](CCC(N)=O)C(=O)N[C@@H](CCCCN)C(=O)N[C@@H](CS)C(=O)N[C@@H](CS)C(=O)N[C@@H](CC(N)=O)C(=O)O [Flu.PB1.683]	–	–	5740 nM	3280	IC50 (DRB1*0301): 43 nM; IC50 (DRB1*1302): 18000 nM
CC[C@H](C)[C@H](NC(=O)[C@H](CCCNC(=N)N)NC(=O)[C@H](C)NC(=O)[C@H](CCCNC(=N)N)NC(=O)[C@H](CO)NC(=O)[C@@H](N)C(C)C)C(=O)N[C@@H](CC(=O)O)C(=O)N[C@@H](C)C(=O)N[C@@H](CCCNC(=N)N)C(=O)N[C@H](C(=O)N[C@@H](CC(=O)O)C(=O)N[C@@H](Cc1ccccc1)C(=O)N[C@@H](CCC(=O)O)C(=O)N[C@@H](CO)C(=O)NCC(=O)O)[C@@H](C)CC [Flu.PB1.722]	–	–	–	3010	–
ALQLLFEVEQEIRTF [Flu.NS2.178]	–	3490	–	8870	IC50 (DRB1*0404): 2150 nM
GSYFFGDNAEEYDN [Flu.NP.488]	–	–	1950 nM	65	–
MVAYMLERELVRKTR [Flu.PB2.205]	–	97	166 nM	5540	IC50 (DRB1*1302): 2080 nM
